Data as given in patent publication US8637508B2, “Heterocyclic derivatives and their use in the treatment of neurological disorders” (Novartis AG, priority 2011, dated 2014).

What was measured:
human BACE-2 = human BACE-2 (Homo sapiens (Human), UniProt Q9Y5Z0); test: Test 2: Inhibition of human BACE-2; format: biochemical; details: mean IC50, recombinant BACE-2, acetate buffer pH 4.5, fluorescence-quenched peptide substrate; read-out: BACE-2 IC50
Text: Test 2: Inhibition of Human BACE-2

human BACE-1 = human BACE-1 (Homo sapiens (Human), UniProt P56817); test: Test 1: Inhibition of human BACE-1; details: read-out: BACE-1 IC50; mean IC50, recombinant BACE-1, acetate buffer pH 4.5, fluorescence-quenched peptide substrate
Chain of human BACE-1 (P56817 46-457): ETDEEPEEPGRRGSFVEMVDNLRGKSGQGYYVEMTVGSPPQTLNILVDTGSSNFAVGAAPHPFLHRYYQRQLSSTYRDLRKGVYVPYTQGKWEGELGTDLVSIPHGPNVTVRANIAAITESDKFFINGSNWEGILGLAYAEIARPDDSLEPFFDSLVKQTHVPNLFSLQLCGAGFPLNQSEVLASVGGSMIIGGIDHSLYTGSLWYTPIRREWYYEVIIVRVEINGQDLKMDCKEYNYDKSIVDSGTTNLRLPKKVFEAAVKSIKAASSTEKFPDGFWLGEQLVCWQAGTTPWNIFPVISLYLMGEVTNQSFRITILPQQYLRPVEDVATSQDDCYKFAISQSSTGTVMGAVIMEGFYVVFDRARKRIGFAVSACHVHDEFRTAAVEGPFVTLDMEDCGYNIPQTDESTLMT

Chain of human BACE-2 (Q9Y5Z0 63-473): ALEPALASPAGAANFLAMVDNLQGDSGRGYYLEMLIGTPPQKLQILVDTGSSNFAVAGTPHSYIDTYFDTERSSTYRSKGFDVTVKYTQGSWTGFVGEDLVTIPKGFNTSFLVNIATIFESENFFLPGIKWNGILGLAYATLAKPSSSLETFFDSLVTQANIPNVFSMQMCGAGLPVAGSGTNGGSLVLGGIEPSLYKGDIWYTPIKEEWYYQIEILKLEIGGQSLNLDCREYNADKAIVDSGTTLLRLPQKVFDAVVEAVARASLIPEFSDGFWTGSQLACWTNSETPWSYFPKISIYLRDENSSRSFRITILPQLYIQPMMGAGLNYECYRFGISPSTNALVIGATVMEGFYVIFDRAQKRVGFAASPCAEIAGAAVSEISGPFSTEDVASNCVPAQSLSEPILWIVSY

Compound | IC50 (human BACE-2) | IC50 (human BACE-1)
C[C@@]1(c2cccc(NC(=O)c3ncc(OCC(F)(F)F)nc3N)n2)CO[C@@](C)(C(F)(F)F)C(N)=N1 [Example 23, 3-Amino-5-(2,2,2-trifluoro-ethoxy)-pyrazine-2-carboxylic acid [6-((3R,6R)-5-amino-3,6-dimethyl-6-trifluoromethyl-3,6-dihydro-2H-[1,4]oxazin-3-yl)-pyridin-2-yl]-amide] | > 10 µM | 1.2 µM
C[C@@]1(c2cc(NC(=O)c3ncc(OC(F)F)cc3Cl)ncc2F)CO[C@@](C)(C(F)(F)F)C(N)=N1 [Example 36, 3-Chloro-5-difluoromethoxy-pyridine-2-carboxylic acid [4-((3R,6R)-5-amino-3,6-dimethyl-6-trifluoromethyl-3,6-dihydro-2H-[1,4]oxazin-3-yl)-5-fluoro-pyridin-2-yl]-amide] | 0.28 µM | 0.41 µM
C[C@@]1(c2cc(NC(=O)c3ncc(C#N)cc3Cl)ncc2F)CO[C@@](C)(C(F)(F)F)C(N)=N1 [Example 35, 3-Chloro-5-cyano-pyridine-2-carboxylic acid [4-((3R,6R)-5-amino-3,6-dimethyl-6-trifluoromethyl-3,6-dihydro-2H-[1,4]oxazin-3-yl)-5-fluoro-pyridin-2-yl]-amide] | 0.12 µM | 0.15 µM
C[C@@]1(c2cccc(NC(=O)c3ccc(Br)cn3)n2)COCC(N)=N1 [Example 1, 5-Bromo-pyridine-2-carboxylic acid [6-((R)-5-amino-3-methyl-3,6-dihydro-2H-[1,4]-oxazin-3-yl)-pyridin-2-yl]-amide] | 0.26 µM | 0.39 µM

Now from value to compound:

IC50 (human BACE-2) | IC50 (human BACE-1) | Compound
0.43 µM | 0.38 µM | Cc1cc(C#N)cnc1C(=O)Nc1cc([C@]2(C)COC(CF)(CF)C(N)=N2)c(F)cn1 [Example 37, 5-Cyano-3-methyl-pyridine-2-carboxylic acid [4-((R)-5-amino-6,6-bis-fluoromethyl-3-methyl-3,6-dihydro-2H-[1,4]oxazin-3-yl)-5-fluoro-pyridin-2-yl]-amide]
0.02 µM | 0.005 µM | Cc1cc(C#N)cnc1C(=O)Nc1cccc([C@]2(C)CO[C@@](C)(C(F)(F)F)C(N)=N2)n1 [Example 8, 5-Cyano-3-methyl-pyridine-2-carboxylic acid [6-((3R,6R)-5-amino-3,6-dimethyl-6-trifluoro-methyl-3,6-dihydro-2H-[1,4]oxazin-3-yl)-pyridin-2-yl]-amide]
